# Results published in publication PMC10232832, “ANO1-downregulation induced by schisandrathera D: a novel therapeutic target for the treatment of prostate and oral cancers” (Frontiers in Pharmacology, 2023).
# pIC50: −log10 of the molar value.
# Biological target: T1, Anoctamin 1 (ANO1) (Homo sapiens, UniProt Q5XXA6)
# T1 construct: ANO1 stably expressed in FRT cells
# T1 sequence (Q5XXA6 1-986): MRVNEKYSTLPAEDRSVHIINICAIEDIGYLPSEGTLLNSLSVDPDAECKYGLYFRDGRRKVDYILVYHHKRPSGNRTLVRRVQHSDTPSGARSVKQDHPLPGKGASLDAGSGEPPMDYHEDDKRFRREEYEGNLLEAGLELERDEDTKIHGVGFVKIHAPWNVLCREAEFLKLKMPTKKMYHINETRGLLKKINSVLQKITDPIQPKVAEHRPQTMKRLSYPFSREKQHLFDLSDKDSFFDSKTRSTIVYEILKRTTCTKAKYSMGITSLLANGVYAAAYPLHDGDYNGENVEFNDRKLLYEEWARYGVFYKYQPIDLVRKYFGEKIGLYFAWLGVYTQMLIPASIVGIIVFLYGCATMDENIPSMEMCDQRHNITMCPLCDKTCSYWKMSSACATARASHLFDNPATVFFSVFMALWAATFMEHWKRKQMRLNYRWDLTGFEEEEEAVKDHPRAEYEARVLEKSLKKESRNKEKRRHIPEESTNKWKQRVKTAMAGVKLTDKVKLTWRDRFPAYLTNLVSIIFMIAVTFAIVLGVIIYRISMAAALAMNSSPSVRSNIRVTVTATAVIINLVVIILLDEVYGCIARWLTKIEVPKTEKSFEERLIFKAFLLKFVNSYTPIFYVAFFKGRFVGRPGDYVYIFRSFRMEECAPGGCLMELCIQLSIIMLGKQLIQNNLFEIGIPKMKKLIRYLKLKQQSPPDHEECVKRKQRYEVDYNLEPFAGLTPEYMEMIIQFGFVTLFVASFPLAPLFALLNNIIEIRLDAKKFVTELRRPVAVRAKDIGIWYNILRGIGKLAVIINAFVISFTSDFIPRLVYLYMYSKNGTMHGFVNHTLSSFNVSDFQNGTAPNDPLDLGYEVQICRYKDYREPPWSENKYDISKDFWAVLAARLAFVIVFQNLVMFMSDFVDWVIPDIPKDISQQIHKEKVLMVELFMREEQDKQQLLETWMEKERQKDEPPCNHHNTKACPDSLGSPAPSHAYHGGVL
# Test: YFP fluorescence quenching (iodide influx) assay in FRT cells expressing ANO1 and YFP
# Format: cell-based
structure (smiles),measurement,value
"COc1cc(C[C@@H](C)[C@@H](C)Cc2cc(O)c(OC)c(OC)c2)cc(O)c1OC [compound 11, schisandrathera D]",pIC50,5.28
